ChEMBL document CHEMBL1212736, “Prevalence and clonal characterization of Streptococcus pyogenes clinical isolates with reduced fluoroquinolone susceptibility in Spain” (2010)
Converted amounts (≈) assume the structure as drawn. The source made the active and inactive calls. No cut-off for these calls is given here.

Legend:
Streptococcus pyogenes [1] = experiment: Antimicrobial activity against strong ciprofloxacin-resistant Streptococcus pyogenes by agar dilution method; type: functional
Streptococcus pyogenes [2] = experiment: Antimicrobial activity against mild ciprofloxacin-resistant Streptococcus pyogenes by agar dilution method; type: functional
Streptococcus pyogenes [3] = experiment: Antimicrobial activity against ciprofloxacin-susceptible Streptococcus pyogenes harboring Asp91/Asn mutation in parC gene by agar dilution method; type: functional
Streptococcus pyogenes [4] = experiment: Antimicrobial activity against strong ciprofloxacin-resistant Streptococcus pyogenes at 10 ug by disk diffusion assay; type: functional; conditions: read-out: IZ
Streptococcus pyogenes [5] = experiment: Antimicrobial activity against strong ciprofloxacin-resistant Streptococcus pyogenes assessed as 1 fold decrease in compound MIC by agar dilution method; type: functional, organism-based
Streptococcus pyogenes [6] = experiment: Antimicrobial activity against mild ciprofloxacin-resistant Streptococcus pyogenes assessed as 1 fold decrease in compound MIC by agar dilution method; type: functional, organism-based
Streptococcus pyogenes [7] = experiment: Antimicrobial activity against ciprofloxacin-susceptible Streptococcus pyogenes harboring Asp91/Asn mutation in parC gene assessed as 1 fold decrease in compound MIC by agar dilution method; type: functional, organism-based
Streptococcus pyogenes [8] = experiment: Antimicrobial activity against macrolide-resistant Streptococcus pyogenes emm77/ST399/T28 expressing tetM gene by agar dilution method; type: functional

Row | Structure (SMILES) | MIC (Streptococcus pyogenes [1]) | MIC50 (Streptococcus pyogenes [2]) | MIC90 (Streptococcus pyogenes [2]) | MIC50 (Streptococcus pyogenes [3]) | MIC90 (Streptococcus pyogenes [3]) | zone of inhibition at 10 µg/disc (Streptococcus pyogenes [4]) | Activity (Streptococcus pyogenes [5]) | Activity (Streptococcus pyogenes [6]) | Activity (Streptococcus pyogenes [7]) | MIC (Streptococcus pyogenes [8])
1 | CO/N=C1\CN(c2nc3c(cc2F)c(=O)c(C(=O)O)cn3C2CC2)CC1CN (configuration not stated) [GEMIFLOXACIN] | 1 µg/mL (≈ 2.57 µM) | ≤ 0.25 µg/mL | ≤ 0.25 µg/mL | ≤ 0.25 µg/mL | ≤ 0.25 µg/mL | 0 mm |  |  |  | 
2 | CC1COc2c(N3CCN(C)CC3)c(F)cc3c(=O)c(C(=O)O)cn1c23 (configuration not stated) [OFLOXACIN] | 64 µg/mL (≈ 177 µM) | 4 µg/mL (≈ 11.1 µM) | 8 µg/mL (≈ 22.1 µM) | 1 µg/mL (≈ 2.77 µM) | 2 µg/mL (≈ 5.53 µM) | 0 mm |  |  |  | 
3 | CCn1cc(C(=O)O)c(=O)c2cc(F)c(N3CCNCC3)cc21 [NORFLOXACIN] | 64 µg/mL (≈ 200 µM) | 32 µg/mL (≈ 100 µM) | > 32 µg/mL | 4 µg/mL (≈ 12.5 µM) | 8 µg/mL (≈ 25.1 µM) | 0 mm | Active | Active | Active | 
4 | CN(C)[C@@H]1C(O)=C(C(N)=O)C(=O)[C@@]2(O)C(O)=C3C(=O)c4c(O)cccc4[C@@](C)(O)[C@H]3C[C@@H]12 [TETRACYCLINE] |  |  |  |  |  |  |  |  |  | 8 µg/mL (≈ 18 µM)
5 | COc1c(N2C[C@@H]3CCCN[C@@H]3C2)c(F)cc2c(=O)c(C(=O)O)cn(C3CC3)c12 [MOXIFLOXACIN] | 4 µg/mL (≈ 9.96 µM) | 0.5 µg/mL (≈ 1.25 µM) | 0.5 µg/mL (≈ 1.25 µM) | ≤ 0.25 µg/mL | ≤ 0.25 µg/mL | 0 mm |  |  |  | 
6 | C[C@H]1COc2c(N3CCN(C)CC3)c(F)cc3c(=O)c(C(=O)O)cn1c23.C[C@H]1COc2c(N3CCN(C)CC3)c(F)cc3c(=O)c(C(=O)O)cn1c23.O [LEVOFLOXACIN] | 32 µg/mL | 2 µg/mL | 2 µg/mL | ≤ 0.5 µg/mL | 1 µg/mL | 0 mm |  |  |  | 
7 | O=C(O)c1cn(C2CC2)c2cc(N3CCNCC3)c(F)cc2c1=O [CIPROFLOXACIN] | 32 µg/mL (≈ 96.6 µM) |  |  | < 0.5 µg/mL | 1 µg/mL (≈ 3.02 µM) | 0 mm | Active | Active | Active | 
8 | Cc1c(F)c(N2CCNC(C)C2)cc2c1c(=O)c(C(=O)O)cn2C1CC1 (configuration not stated) [GREPAFLOXACIN] | 16 µg/mL (≈ 44.5 µM) | 2 µg/mL (≈ 5.56 µM) | 2 µg/mL (≈ 5.56 µM) | ≤ 0.5 µg/mL | 1 µg/mL (≈ 2.78 µM) | 0 mm |  |  |  | 
